Data taken from patent US12180193B2, “Accelerating fibrosarcoma protein degrading compounds and associated methods of use” (Arvinas Operations, Inc., priority 2020, dated 2024).

What was measured:
BRAF G466V = biological target: T1, BRAF G466V (Homo sapiens, UniProt P15056, G466V); test: Cellular assay of target protein degradation, T-Rex 293 cells stably transfected with HA-BRAF G466V (HA immunofluorescence, high content imaging); assay type: cell-based; conditions: T-Rex 293 HA-BRAF G466V; for DC50: half maximal degradation, read-out: BRaf G466V DC50; for Dmax: maximum degradation observed
T1 construct: expressed in transfected cells
Procedure, shortened: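 First, stably transfected T-Rex 293 cells were plated with 0.75 ng/mL doxycycline and grown for 24 hours. Next, compound (final 30 nM to 3 pM, 0.1% DMSO) was added for another 24 hours at 37° C. Finally, cells were fixed, stained for HA and imaged.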

BRAF V600E = biological target: T2, BRAF V600E (Homo sapiens, UniProt P15056, V600E); test: Cellular assay of target protein degradation, T-Rex 293 cells stably transfected with HA-BRAF_V600E (HA immunofluorescence, high content imaging); assay type: cell-based; conditions: T-Rex 293 HA-BRAF V600E; for DC50: half maximal degradation, read-out: BRaf V600E DC50; for Dmax: maximum degradation observed
T2 construct: expressed in transfected cells
Procedure, shortened: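 Read-out is anti-HA immunofluorescence quantified by high-content imaging, giving half-maximal degradation concentration (DC50) and maximum degradation (Dmax, percent of control). Cells expressed the construct under 1 ng/mL doxycycline and received compound (1 μM to 0.1 nM final, 0.1% DMSO) for 24 h at 37 °C.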

T2 sequence (P15056 whole entry V600E): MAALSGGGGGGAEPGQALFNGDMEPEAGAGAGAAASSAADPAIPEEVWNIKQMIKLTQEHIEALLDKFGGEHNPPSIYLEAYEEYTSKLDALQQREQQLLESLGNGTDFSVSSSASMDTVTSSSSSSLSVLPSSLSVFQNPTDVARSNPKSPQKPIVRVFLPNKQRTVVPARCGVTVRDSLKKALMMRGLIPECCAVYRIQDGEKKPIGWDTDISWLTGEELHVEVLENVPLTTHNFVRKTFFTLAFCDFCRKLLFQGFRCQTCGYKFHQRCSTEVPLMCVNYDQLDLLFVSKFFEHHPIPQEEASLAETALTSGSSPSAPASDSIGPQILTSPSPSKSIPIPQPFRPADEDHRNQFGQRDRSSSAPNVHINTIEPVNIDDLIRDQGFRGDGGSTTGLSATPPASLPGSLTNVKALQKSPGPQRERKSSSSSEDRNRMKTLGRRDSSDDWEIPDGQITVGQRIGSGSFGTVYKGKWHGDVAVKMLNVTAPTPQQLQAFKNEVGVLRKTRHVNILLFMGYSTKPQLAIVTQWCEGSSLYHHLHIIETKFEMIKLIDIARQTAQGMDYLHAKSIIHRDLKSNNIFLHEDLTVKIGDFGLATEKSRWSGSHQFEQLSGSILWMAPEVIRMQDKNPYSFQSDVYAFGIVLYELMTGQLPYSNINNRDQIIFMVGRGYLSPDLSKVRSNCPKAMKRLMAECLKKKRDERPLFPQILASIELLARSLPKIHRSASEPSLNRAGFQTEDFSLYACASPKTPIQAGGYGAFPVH
T1 sequence (P15056 whole entry G466V): as the sequence (P15056 whole entry V600E) above, with G466V, E600V counted along it

| Structure (SMILES) | DC50 (BRAF G466V) | Dmax (BRAF G466V) | DC50 (BRAF V600E) | Dmax (BRAF V600E) |
| --- | --- | --- | --- | --- |
| O=C1CCC(N2Cc3cc(N4CCC(CN5CCN(c6ccc(-c7cnc8[nH]cc(C(=O)c9c(F)ccc(NS(=O)(=O)N%10CC[C@@H](F)C%10)c9F)c8c7)cc6)CC(F)(F)C5)CC4)ccc3C2=O)C(=O)N1 (stereo partly drawn) [Compound 315, (3R)-N-{3-(5-{4-[4-({1-[2-(2,6-dioxopiperidin-3-yl)-1-oxo-2,3-dihydro-1H-isoindol-5-yl]piperidin-4-yl}methyl)-6,6-difluoro-1,4-diazepan-1-yl]phenyl}-1H-pyrrolo[2,3-b]pyridine-3-carbonyl)-2,4-difluorophenyl]-3-fluoropyrrolidine-1-sulfonamide] | > 30 nM |  | > 500 nM |  |
| Nc1ccc(F)c(C(=O)c2c[nH]c3ncc(-c4ccc(N5CCC(CN6CC7(C6)CN(c6ccc(C(=O)N[C@H]8CCC(=O)NC8=O)c(F)c6)C7)CC5)cc4)cc23)c1F [Compound 363, 4-{6-[(1-{4-[3-(3-amino-2,6-difluorobenzoyl)-1H-pyrrolo[2,3-b]pyridin-5-yl]phenyl}piperidin-4-yl)methyl]-2,6-diazaspiro[3.3]heptan-2-yl}-N-[(3S)-2,6-dioxopiperidin-3-yl]-2-fluorobenzamide] | > 30 nM |  | > 500 nM |  |
| O=C1CCC(N2Cc3cc(N4CCN(CCCCc5ccc(-c6cnc7[nH]cc(C(=O)c8c(F)ccc(NS(=O)(=O)N9CC[C@@H](F)C9)c8F)c7c6)cc5)CC4)ccc3C2=O)C(=O)N1 (stereo partly drawn) [Compound 317, (3R)-N-(3-{5-[4-(4-{4-[2-(2,6-dioxopiperidin-3-yl)-1-oxo-2,3-dihydro-1H-isoindol-5-yl]piperazin-1-yl}butyl)phenyl]-1H-pyrrolo[2,3-b]pyridine-3-carbonyl}-2,4-difluorophenyl)-3-fluoropyrrolidine-1-sulfonamide] | 1 to 10 nM | > 70% | 50 to 500 nM | 35 to 70% |
| O=C1CC[C@H](NC(=O)c2ccc(N3CCC(CN4CC5(C4)CN(c4ccc(-c6cnc7[nH]cc(C(=O)c8c(F)ccc(NS(=O)(=O)N9CC[C@@H](F)C9)c8F)c7c6)cc4)C5)CC3)cc2F)C(=O)N1 [Compound 29, 4-(4-{[6-(4-{3-[2,6-difluoro-3-({[(3R)-3-fluoropyrrolidin-1-yl]sulfonyl}amino)benzoyl]-1H-pyrrolo[2,3-b]pyridin-5-yl}phenyl)-2,6-diazaspiro[3.3]heptan-2-yl]methyl}piperidin-1-yl)-N-[(3S)-2,6-dioxopiperidin-3-yl]-2-fluorobenzamide] | 1 to 10 nM | 35 to 70% | 5 to 50 nM | 35 to 70% |
| O=C1CC[C@@H](NC(=O)N2CCCc3c(N4CCC(CN5CCN(c6ccc(-c7cnc8[nH]cc(C(=O)c9c(F)ccc(NS(=O)(=O)N%10CC[C@@H](F)C%10)c9F)c8c7)cc6)CC5)CC4)ccnc32)C(=O)N1 [Compound 372, 5-(4-{[4-(4-{3-[2,6-difluoro-3-({[(3R)-3-fluoropyrrolidin-1-yl]sulfonyl}amino)benzoyl]-1H-pyrrolo[2,3-b]pyridin-5-yl}phenyl)piperazin-1-yl]methyl}piperidin-1-yl)-N-[(3R)-2,6-dioxopiperidin-3-yl]-1,2,3,4-tetrahydro-1,8-naphthyridine-1-carboxamide] | > 30 nM |  | > 500 nM |  |
| O=C1CC[C@@H](N2Cc3cc(N4CCC(OC5CCN(c6ccc(-c7cnc8[nH]cc(C(=O)c9c(F)ccc(NS(=O)(=O)N%10CC[C@@H](F)C%10)c9F)c8c7)cc6)CC5)CC4)ccc3C2=O)C(=O)N1 [Compound 35, (3R)-N-{3-[5-(4-{4-[(1-{2-[(3R)-2,6-dioxopiperidin-3-yl]-1-oxo-2,3-dihydro-1H-isoindol-5-yl}piperidin-4-yl)oxy]piperidin-1-yl}phenyl)-1H-pyrrolo [2,3-b]pyridine-3-carbonyl]-2,4-difluorophenyl}-3-fluoropyrrolidine-1-sulfonamide] | 1 to 10 nM | > 70% | 5 to 50 nM | 35 to 70% |

Other lines, results leading:

| DC50 (BRAF G466V) | Dmax (BRAF G466V) | DC50 (BRAF V600E) | Dmax (BRAF V600E) | Structure (SMILES) |
| --- | --- | --- | --- | --- |
| 1 to 10 nM | 35 to 70% | 50 to 500 nM | 35 to 70% | O=C1CCC(N2Cc3cc(N4CC(CN5CCC(C6(c7ccc(-c8cnc9[nH]cc(C(=O)c%10c(F)ccc(NS(=O)(=O)N%11CC[C@@H](F)C%11)c%10F)c9c8)cc7)CC6)CC5)C4)ccc3C2=O)C(=O)N1 (stereo partly drawn) [Compound 304, (3R)-N-{3-[5-(4-{1-[1-({1-[2-(2,6-dioxopiperidin-3-yl)-1-oxo-2,3-dihydro-1H-isoindol-5-yl]azetidin-3-yl}methyl)piperidin-4-yl]cyclopropyl}phenyl)-1H-pyrrolo[2,3-b]pyridine-3-carbonyl]-2,4-difluorophenyl}-3-fluoropyrrolidie-1-sulfonamide] |
| 1 to 10 nM | 35 to 70% | 50 to 500 nM | 35 to 70% | O=C1CCC(N2Cc3cc(N4CC(CN5CCN(C6(c7ccc(-c8cnc9[nH]cc(C(=O)c%10c(F)ccc(NS(=O)(=O)N%11CC[C@@H](F)C%11)c%10F)c9c8)cc7)CC6)CC5)C4)ccc3C2=O)C(=O)N1 (stereo partly drawn) [Compound 200, (3R)-N-{3-[5-(4-{1-[4-({1-[2-(2,6-dioxopiperidin-3-yl)-1-oxo-2,3-dihydro-1H-isoindol-5-yl]azetidin-3-yl}methyl)piperazin-1-yl]cyclopropyl}phenyl)-1H-pyrrolo[2,3-b]pyridine-3-carbonyl]-2,4-difluorophenyl}-3-fluoropyrrolidine-1-sulfonamide] |
| 1 to 10 nM | > 70% | 5 to 50 nM | 35 to 70% | CCCS(=O)(=O)Nc1ccc(F)c(C(=O)c2c[nH]c3ncc(-c4ccc(N5CCN(CC6CCN(c7ccc8c(c7)CN([C@H]7CCC(=O)NC7=O)C8=O)CC6)CC5)cc4)cc23)c1F [Compound 243, N-{3-[5-(4-{4-[(1-{2-[(3S)-2,6-dioxopiperidin-3-yl]-1-oxo-2,3-dihydro-1H-isoindol-5-yl}piperidin-4-yl)methyl]piperazin-1-yl}phenyl)-1H-pyrrolo[2,3-b]pyridine-3-carbonyl]-2,4-difluorophenyl}propane-1-sulfonamide] |
| 1 to 10 nM | > 70% | 5 to 50 nM | 35 to 70% | O=C1CCC(N2Cc3cc(N4CCC(CN5CC[C@@H]6[C@H](C5)CN6c5ccc(-c6cnc7[nH]cc(C(=O)c8c(F)ccc(NS(=O)(=O)N9CC[C@@H](F)C9)c8F)c7c6)cc5)CC4)ccc3C2=O)C(=O)N1 (stereo partly drawn) [Compound 311, (3R)-N-[3-(5-{4-[(1R,6R)-3-({1-[2-(2,6-dioxopiperidin-3-yl)-1-oxo-2,3-dihydro-1H-isoindol-5-yl]piperidin-4-yl}methyl)-3,7-diazabicyclo[4.2.0]octan-7-yl]phenyl}-1H-pyrrolo[2,3-b]pyridine-3-carbonyl)-2,4-difluorophenyl]-3-fluoropyrrolidine-1-sulfonamide] |
| < 1 nM | 35 to 70% | 5 to 50 nM | 35 to 70% | COc1cc(CCCN2CC3(C2)CN(c2ccc(-c4cnc5[nH]cc(C(=O)c6c(F)ccc(NS(=O)(=O)N7CC[C@@H](F)C7)c6F)c5c4)cc2)C3)cc2c1C(=O)N(C1CCC(=O)NC1=O)C2 (stereo partly drawn) [Compound 22, (3R)-N-(3-{5-[4-(6-{3-[2-(2,6-dioxopiperidin-3-yl)-7-methoxy-1-oxo-2,3-dihydro-1H-isoindol-5-yl]propyl}-2,6-diazaspiro[3.3]heptan-2-yl)phenyl]-1H-pyrrolo[2,3-b]pyridine-3-carbonyl}-2,4-difluorophenyl)-3-fluoropyrrolidine-1-sulfonamide] |
| 1 to 10 nM | 35 to 70% | 5 to 50 nM | 35 to 70% | O=C1CC[C@H](NC(=O)c2ccc(N3CCC(CN4CC5(C4)CN(c4ccc(-c6cnc7[nH]cc(C(=O)c8c(F)ccc(NS(=O)(=O)N9CC[C@@H](F)C9)c8F)c7c6)cc4)C5)CC3)cn2)C(=O)N1 [Compound 353, 5-(4-{[6-(4-{3-[2,6-difluoro-3-({[(3R)-3-fluoropyrrolidin-1-yl]sulfonyl}amino)benzoyl]-1H-pyrrolo[2,3-b]pyridin-5-yl}phenyl)-2,6-diazaspiro[3.3]heptan-2-yl]methyl}piperidin-1-yl)-N-[(3S)-2,6-dioxopiperidin-3-yl]pyridine-2-carboxamide] |
| < 1 nM | 35 to 70% | < 5 nM | < 35% | O=C1CC[C@@H](N2Cc3cc(N4C[C@H]5CN(CC6CCN(c7ccc(-c8cnc9[nH]cc(C(=O)c%10c(F)ccc(NS(=O)(=O)N%11CC[C@@H](F)C%11)c%10F)c9c8)cc7)CC6)C[C@H]5C4)ccc3C2=O)C(=O)N1 [Compound 58, (3R)-N-(3-{5-[4-(4-{[(3aR,6aS)-5-{2-[(3R)-2,6-dioxopiperidin-3-yl]-1-oxo-2,3-dihydro-1H-isoindol-5-yl}-octahydropyrrolo [3,4-c]pyrrol-2-yl]methyl}piperidin-1-yl)phenyl]-1H-pyrrolo[2,3-b]pyridine-3-carbonyl}-2,4-difluorophenyl)-3-fluoropyrrolidine-1-sulfonamide] |
| < 1 nM | > 70% | 5 to 50 nM | 35 to 70% | O=C1CC[C@H](N2Cc3cc(C4CCN(CC5CCN(c6ccc(-c7cnc8[nH]cc(C(=O)c9c(F)ccc(NS(=O)(=O)N%10CCCC%10)c9F)c8c7)cc6)CC5)CC4)ccc3C2=O)C(=O)N1 [Compound 230, N-{3-[5-(4-{4-[(4-{2-[(3S)-2,6-dioxopiperidin-3-yl]-1-oxo-2,3-dihydro-1H-isoindol-5-yl}piperidin-1-yl)methyl]piperidin-1-yl}phenyl)-1H-pyrrolo[2,3-b]pyridine-3-carbonyl]-2,4-difluorophenyl}pyrrolidine-1-sulfonamide] |
